Reference: US20090186868A1, “Taxane Compound Having Azetidine Ring Structure” (Daiichi Sankyo Company Limited, priority 2005, published 2009)
In brackets after ≈: the same amount, converted by molar mass. Where two headings read alike, the source gives them in different places.

Key:
[1] = system: NCI-H460 (human lung cancer cell line); assay: Anti-cell activity (MTT) against human tumor cell line NCI-H460; assay type: cell-based; conditions: 72 h, NCI-H460, cultured three days, read-out: NCI-H460 (GI50 value, ng/mL)
Method: (§1) Three types of human tumor cell lines (all of the cells were obtained from American Type Culture Collection) were seeded on 96-well microplates as follows.
(§2) NCI-H460 (human lung cancer cell line): 5.0×10^2 cells/190 μL/well HCT-15 (P glycoprotein (P-gp) expressing human colon cancer cell line, J. Natl. Cancer Inst., 2001, 93:1234-1245): 1.0×10^3 cells/190 μL/well HCT116 (human colon cancer cell line): 1.0×10^3 cells/190 μL/well On the next day, each test compound was dissolved in 100% dimethyl sulfoxide (DMSO) at a concentration of 10 mg/mL. This solution was diluted with 0.01% Cremophor EL-PBS(−) (Cremophor EL: Sigma Chemical Co., St. Louis, Mo., USA, PBS: Invitrogen Corp., Carlsbad, Calif., USA), and 10 μL of the diluted solution was added to each well (final concentration: 100 to 0.000381 ng/mL). The cells were cultured for three days, and then […] of a 5 mg/mL solution of 3-(4,5-dimethylthiazol-2-yl)-2,5-diphenyl-2H-tetrazolium bromide (MTT, Sigma Chemical Co.) was added to each well. The cells were further cultured for 4 hours, and then the medium was removed by centrifugation. By adding 150 μL of DMSO to each well, the produced formazan product was dissolved. The absorbance of the solution was measured at 540 nm. The drug concentration suppressing cell proliferation of the drug addition group to 50% of the cell proliferation of the drug free group (GI50 value, ng/mL) was calculated, and used as an index of anti-cell activity.

[2] = system: HCT-15 (P glycoprotein (P-gp) expressing human colon cancer cell line); assay: Anti-cell activity (MTT) against human tumor cell line HCT-15; assay type: cell-based; conditions: 72 h, HCT-15 (P-gp expressing), cultured three days, read-out: HCT-15 (GI50 value, ng/mL)
Method: as §1, §2

[3] = system: HCT116 (human colon cancer cell line); assay: Anti-cell activity (MTT) against human tumor cell line HCT116; assay type: cell-based; conditions: HCT-116, 72 h, HCT116, cultured three days, read-out: HCT116 (GI50 value, ng/mL)
Method: as §1, §2

B16 melanoma BL6 = assay: Antitumor effect in mice subcutaneously transplanted with B16 melanoma BL6; assay type: in vivo, Mice (C57BL/6); conditions: for Therapeutic index: MTD/MED; for Effective dose range: range from MED to MTD, antitumor effect of 58% or more considered effective
From the text: (§3) Mice (C57BL/6, Charles River Japan) were subcutaneously transplanted with B16 melanoma BL6 (Cancer Res., Poste, G., Fidler, I. J. et al., 1980, 40:1636; Bioorg. Med. Chem. Lett., Takeda, Y. et al., 2003, 13:185-190), or M5076 (obtained from Japanese Foundation for Cancer Research), which is a histiocytoma expressing P-gp. Four days after the transplantation in the case of B16 melanoma BL6, or 8 to 10 days after the transplantation in the case of M5076, each test compound suspended in a 0.5% aqueous solution of carboxymethylcellulose sodium, or dissolved in EtOH:Tween 80:5% glucose=5:5:90 (v/v %) was orally (po) or intravenously (iv) administered to the mice. Ten days after the administration in the case of B16 melanoma BL6, or 8 to 10 days after the administration in the case of M5076, the mice were dissected, and tumor weights were measured. The antitumor effect was calculated in accordance with the following equation.
(§4) [1−(Average tumor weight of compound administration group/average tumor weight of solvent administration group)]×100
(§5) An antitumor effect of 58% or more was considered effective (Int. J. Cancer, 1989, 43:637-44), and the maximum tolerance dose (MTD, maximum dose not causing death, mg/kg) and minimum effective dose (MED, mg/kg) showing effectiveness were obtained, respectively. The therapeutic index was calculated in accordance with the equation: MTD/MED.
(§6) ND means that the test was not performed. The effective dose range means the range of from MED to MTD.

[4] = system: M5076 (histiocytoma expressing P-gp); assay: Antitumor effect in mice subcutaneously transplanted with M5076; assay type: in vivo, Mice (C57BL/6); conditions: for Therapeutic index: MTD/MED; for Effective dose range: range from MED to MTD, antitumor effect of 58% or more considered effective
From the text: as §3, §4, §5, §6

[5] = Solubility in first and second solution for disintegration test (Japanese Pharmacopoeia); assay type: physicochemical; conditions: for solubility: thermodynamic from solid
Method: Solubility of each compound was determined in the first solution for disintegration test according to Japanese Pharmacopoeia (henceforth referred to as the first solution, solution obtained by adding 7 mL of hydrochloric acid and water to 2.00 g of sodium chloride to dissolve sodium chloride and fill up the solution to 1000 mL, pH 1.2) and the second solution for disintegration test according to Japanese Pharmacopoeia (henceforth referred to as the second solution, solution obtained by adding 118 mL of 0.2 mol/L solution of sodium hydroxide to 6.80 g of potassium dihydrogenphosphate, adding water to the mixture to dissolve potassium dihydrogenphosphate and filling up the solution to 1000 mL, pH 6.8).
Each test compound was dissolved in 100% dimethyl sulfoxide (DMSO) at a concentration of 10 mM, and 50 μL of the solution was lyophilized. The lyophilized test compound was added with 250 μL of the first solution or second solution, and the mixture was stored at room temperature for 12 hours or longer under light shielding, and filtered (0.7 μm). The filtrate was taken in a volume of 90 μL, and added with 50% DMSO (90 μL) to obtain a two-fold diluted solubility sample. The two-fold dilution solubility sample was taken in a volume of 20 μL, and added with 50% DMSO (180 μL) to obtain a […] diluted solubility sample. Solubility of each test sample was determined by quantifying the test compound in the resulting diluted solubility test samples using high-performance liquid chromatography.

[6] = aqueous buffer, second solution for disintegration test, pH 6.8, room temperature, 12 hours or longer, read-out: Solubility (μg/mL) pH 6.8
[7] = simulated gastric fluid, first solution for disintegration test, pH 1.2, room temperature, 12 hours or longer, read-out: Solubility (μg/mL) pH 1.2
[8] = first solution for disintegration test, pH 1.2, room temperature, 12 hours or longer
[9] = second solution for disintegration test, pH 6.8, room temperature, 12 hours or longer
[10] = pH 1.2, simulated gastric fluid

| SMILES | GI50 [1] | GI50 [2] | GI50 [3] | Therapeutic index (B16 melanoma BL6; B16 Melanoma BL6, po) | Therapeutic index ([4]; M5076, po) | Effective dose range ([4]; M5076, po) | solubility [5, 6] | solubility [5, 7] | Therapeutic index (B16 melanoma BL6; B16 Melanoma BL6, iv) | Effective dose range (B16 melanoma BL6; B16 Melanoma BL6, iv) | Effective dose range (B16 melanoma BL6; B16 Melanoma BL6, po) | Therapeutic index ([4]; M5076, iv) | Effective dose range ([4]; M5076, iv) | Solubility (μg/mL) pH 1.2 [5, 8] | Solubility (μg/mL) pH 6.8 [5, 9] | solubility [5, 10] | solubility ([5]; pH 6.8, aqueous buffer) |
| --- | --- | --- | --- | --- | --- | --- | --- | --- | --- | --- | --- | --- | --- | --- | --- | --- | --- |
| CC(=O)O[C@@]12CO[C@@H]1CC[C@@]1(C)[C@@H]3O[C@H](CN4CC(O)C4)O[C@@H]3C3=C(C)[C@@H](OC(=O)[C@H](O)[C@@H](NC(=O)OC(C)(C)C)c4ccccn4)C[C@@](O)([C@@H](OC(=O)c4ccccc4)[C@@H]12)C3(C)C [Example 5, (1S,2S,3R,4S,5R,8R,9S,10R,13S)-4-(Acetoxy)-2-(benzoyloxy)-5,20-epoxy-1-hydroxy-9,10-[(1S)-2-(3-hydroxyazetidino)ethylidenedioxy]tax-11-en-13-yl (2R,3S)-3-(tert-butoxycarbonylamino)-2-hydroxy-3-(2-pyridyl)propionate] | 0.162 ng/mL (≈ 0.000182 µM) | 8.08 ng/mL (≈ 0.00906 µM) | 0.229 ng/mL (≈ 0.000257 µM) | 6.0 | 1.0 | 30.0 mg/kg | 140 µg/mL (≈ 157 µM) | 1000 µg/mL (≈ 1120 µM) | – | – | – | – | – | – | – | – | – |
| CC(=O)O[C@@]12CO[C@@H]1CC[C@@]1(C)[C@@H]3O[C@H](CN4CC(C)(O)C4)O[C@@H]3C3=C(C)[C@@H](OC(=O)[C@H](O)[C@@H](NC(=O)OC(C)(C)C)c4ccccn4)C[C@@](O)([C@@H](OC(=O)c4ccccc4)[C@@H]12)C3(C)C [Example 11, (1S,2S,3R,4S,5R,8R,9S,10R,13S)-4-(Acetoxy)-2-(benzoyloxy)-5,20-epoxy-1-hydroxy-9,10-[(1S)-2-(3-hydroxy-3-methylazetidino)ethylidenedioxy]tax-11-en-13-yl (2R,3S)-3-(tert-butoxycarbonylamino)-2-hydroxy-3-(2-pyridyl)propionate] | 0.109 ng/mL (≈ 0.00012 µM) | 4.21 ng/mL (≈ 0.00465 µM) | 0.173 ng/mL (≈ 0.000191 µM) | 5.9 | – | – | 170 µg/mL (≈ 188 µM) | 1300 µg/mL (≈ 1430 µM) | – | – | – | – | – | – | – | – | – |
| CC(=O)O[C@@]12CO[C@@H]1CC[C@@]1(C)[C@@H]3O[C@H](CN4CCC4)O[C@@H]3C3=C(C)[C@@H](OC(=O)[C@H](O)[C@@H](NC(=O)OC(C)(C)C)c4ncco4)C[C@@](O)([C@@H](OC(=O)c4ccccc4)[C@@H]12)C3(C)C [Example 41, (1S,2S,3R,4S,5R,8R,9S,10R,13S)-4-(Acetoxy)-9,10-[(1S)-2-(azetidino)ethylidenedioxy]-2-(benzoyloxy)-5,20-epoxy-1-hydroxytax-11-en-13-yl (2R,3R)-3-(tert-butoxycarbonylamino)-2-hydroxy-3-(2-oxazolyl)propionate] | – | – | – | 2.9 | – | – | – | – | 4.2 | 5.29 to 22.0 mg/kg | 8.58 to 25.0 mg/kg | 1.4 | 17.5 to 25.0 mg/kg | 910 μg/mL | 370 μg/mL | – | – |
| CC(=O)O[C@@]12CO[C@@H]1CC[C@@]1(C)[C@@H]3O[C@H](CN4CC(O)C4)O[C@@H]3C3=C(C)[C@@H](OC(=O)[C@H](O)[C@@H](NC(=O)OC(C)(C)C)c4ncccc4F)C[C@@](O)([C@@H](OC(=O)c4ccccc4)[C@@H]12)C3(C)C [Example 6, (1S,2S,3R,4S,5R,8R,9S,10R,13S)-4-(Acetoxy)-2-(benzoyloxy)-5,20-epoxy-1-hydroxy-9,10-[(1S)-2-(3-hydroxyazetidino)ethylidenedioxy]tax-11-en-13-yl (2R,3S)-3-(tert-butoxycarbonylamino)-3-(3-fluoro-2-pyridyl)-2-hydroxypropionate] | 0.172 ng/mL (≈ 0.000189 µM) | 7.94 ng/mL (≈ 0.00873 µM) | 0.183 ng/mL (≈ 0.000201 µM) | 4.2 | 2.0 | 18.6 to 38.0 mg/kg | – | – | – | – | – | – | – | – | – | 690 µg/mL (≈ 758 µM) | 87 µg/mL (≈ 95.6 µM) |
| CC(=O)O[C@@]12CO[C@@H]1CC[C@@]1(C)[C@@H]3O[C@H](CN4CCC4)O[C@@H]3C3=C(C)[C@@H](OC(=O)[C@H](O)[C@@H](NC(=O)OC(C)(C)C)c4ccccn4)C[C@@](O)([C@@H](OC(=O)c4ccccc4)[C@@H]12)C3(C)C [Example 1, (1S,2S,3R,4S,5R,8R,9S,10R,13S)-4-(Acetoxy)-9,10-[(1S)-2-(azetidino)ethylidenedioxy]-2-(benzoyloxy)-5,20-epoxy-1-hydroxytax-11-en-13-yl (2R,3S)-3-(tert-butoxycarbonylamino)-2-hydroxy-3-(2-pyridyl)propionate] | 0.19 ng/mL (≈ 0.000217 µM) | 1.14 ng/mL (≈ 0.0013 µM) | 0.244 ng/mL (≈ 0.000279 µM) | 2.9 | – | – | 170 µg/mL (≈ 194 µM) | 1200 µg/mL (≈ 1370 µM) | – | – | – | – | – | – | – | – | – |
| CC(=O)O[C@H]1C(=O)[C@@]2(C)[C@H]([C@H](OC(=O)c3ccccc3)[C@]3(O)C[C@H](OC(=O)[C@H](O)[C@@H](NC(=O)c4ccccc4)c4ccccc4)C(C)=C1C3(C)C)[C@]1(OC(C)=O)CO[C@@H]1C[C@@H]2O [Paclitaxel, reference compound] | 1.87 ng/mL (≈ 0.00219 µM) | > 100 ng/mL | 1.71 ng/mL (≈ 0.002 µM) | – | – | – | – | – | – | – | – | – | – | – | – | < 4 µg/mL | < 4 µg/mL |
| CC(=O)O[C@@]12CO[C@@H]1CC[C@@]1(C)[C@@H]3O[C@H](CN4CCC4)O[C@@H]3C3=C(C)[C@@H](OC(=O)[C@H](O)[C@@H](NC(=O)OC(C)(C)C)C(F)F)C[C@@](O)([C@@H](OC(=O)c4ccccc4)[C@@H]12)C3(C)C [Example 31, (1S,2S,3R,4S,5R,8R,9S,10R,13S)-4-(Acetoxy)-9,10-[(1S)-2-(azetidino)ethylidenedioxy]-2-(benzoyloxy)-5,20-epoxy-1-hydroxytax-1′-en-13-yl (2R,3R)-3-(tert-butoxycarbonylamino)-4,4-difluoro-2-hydroxybutyrate] | – | – | – | 2.0 | – | – | – | – | 2.9 | 3.43 to 10.0 mg/kg | 8.82 to 18.0 mg/kg | 1.0 | 10.0 mg/kg | 1000 μg/mL | 160 μg/mL | – | – |
